# Entries after “also recorded” stand apart in the source; their conditions may differ.
# Assays:
# dihydroceramides = assay: lipidomic analysis of ceramides and dihydroceramides in T6PNE cells; type: cell-based, human; conditions: 2 days after treatment
# Experimental: Ceramides and dihydroceramides were measured in the UCSD Lipidomics Core Facility as previously described (Quehenberger et al.). Briefly, samples were extracted using the butanol: methanol (BUME) method. The lipid layer was collected and run on a Thermo-Vanquish UPLC (Thermo Scientific) with a Cortecs T3 (C18), 2.1 mm×150 mm; 1.8 uT3 column and a binary solvent system. Mass spectrometry employed a Thermo Q Exactive instrument with MS/MS data dependent acquisition scan mode and LipidSearch software (Thermo Fisher Scientific).
# LC3B = assay: anti-LC3B Western blot in T6PNE cells; type: cell-based, human; conditions: 10 μM
# Experimental: Whole-cell extracts were prepared by incubation in RIPA buffer (Invitrogen) containing protease inhibitors (Calbiochem, San Diego, Calif.). Protein ([…]) was separated on 12% or 16% Tri-Glycine gels (Invitrogen) and transferred to Immobilon P membrane (0.2 μm pore, Millipore). After 1 h in phosphate-buffered saline-Tween (PBST) with 3% milk, membrane was incubated with antibodies to HNF4α (mouse, Novus, 1:1000), LC3B (rabbit, Novus, 1:500), p62 (SQSTM1, mouse, Santa Cruz, 1:1000) or β-actin (mouse, Santa Cruz, 1:2000), followed by secondary antibody conjugated to horseradish peroxidase (1:5000, Jackson Immune).
# CYP26A1 mRNA [1] = assay: hepatic CYP26A1 mRNA in DIO mice; type: in vivo; conditions: mouse liver
# Experimental: (§1) Quantitative PCR (Q-PCR) from in vitro cell culture experiments used total RNA purified using RNeasy Kits (Qiagen). For liver tissue samples, total RNA was isolated using Trizol (Invitrogen) and prepared for RNAseq (mouse liver DMSO and NCT, N=3). cDNA was amplified using 3 μg of total RNA using qScript cDNA SuperMix (Quanta BioSciences, Beverly, Mass., USA). QPCR analysis was performed using SYBR® Select Master Mix (Applied Biosystems) and ABI 7900HT (Applied Biosystems, Thermo Fisher Scientific). The Ct values of mRNA expression were then normalized to the 18 s rRNA values and are expressed as fold change over samples from mice fed normal chow for in vivo experiments or DMSO controls for cell culture experiments.
# For dose response experiments, mice were injected intraperitoneally with 10% DMSO as vehicle control or 4 different doses of NCT (30, 60, 120 and 240 mg/kg of body weight) dissolved in 10% DMSO. Mice received 2 doses per day with a 5 h interval between injections for 3 days. To test the effect of NCT (Sundia MediTech Company, Ltd., Custom synthesis), 200 mg/kg was injected IP bid for 14 days. On day 15, mice received a final dose of NCT followed by IP injection with 3 g/kg dextrose. One h later, blood samples were collected and mice were euthanized using pentobarbital. Total mouse, liver and epididymal fat pad weights were measured. […]
# HNF4a mRNA = HNF4a mRNA in primary human hepatocytes; type: cell-based; conditions: high fat media, 5, 15, 40 µM, Day 4 to Day 10
# Experimental: Experiments with primary human hepatocytes were performed by CN-Bio (Cambridge, UK). Primary human hepatocytes (PHHs), human Kupffer cells (HKs) and human stellate cells (HSCs) were seeded onto CN-Bio's PhysioMimix LC12 MPS culture plates at 6×10^5 cells for PHHs and 6×10^4 cells for HKs and HSCs in 1.6 ml of CN-Bio's HEP-lean media with 5% FCS. Throughout the experiment the cells were maintained at a flow rate of 1 μl/s. After 24 h (Day 1) of seeding, the media was changed to HEP-lean media and the cells were incubated until day 4 to allow the cells to form microtissues. At day 4 post seeding, media was changed to HEP-fat media and treated with DMSO or NCT (5, 15, 40 μM). Media was replaced on days 6 and 8. Cells were harvested on day 10 for RNA extraction. Data are presented as mean ±SEM of three or more samples as indicated. Statistical significance was assessed using Student's t-test, ANOVA or R^2 coefficient of correlation.
# CYP26A1 mRNA [2] = assay: CYP26A1 mRNA in T6PNE cells; type: cell-based, human; conditions: 2 days, 0.25 mM palmitate, NCT 10 μM, 4-OH-RA 20 μM
# Experimental: as §1
# SPNS2 mRNA = assay: SPNS2 qPCR in mouse liver; type: in vivo
# Experimental: as §1
structure (smiles),measurement,setting,value
"O=C(/C=C/c1ccc(O)c(O)c1)NCCc1ccc(O)cc1 [NCT, N-trans-caffeoyltyramine]",dihydroceramide production,dihydroceramides,multiple dihydroceramides were increased; also recorded: induced multiple identical dihydroceramides
same,dihydroceramide production,dihydroceramides; listed as N-trans-caffeoyltyramine,Dihydroceramide was induced
same,LC3B-II to LC3B-I ratio,LC3B,induced increases
same,hepatic CYP26A1 mRNA,CYP26A1 mRNA [1],induced CYP26a1
same,HNF4a mRNA,HNF4a mRNA,significantly induced
same,CYP26A1 mRNA level,CYP26A1 mRNA [2],induced CYP26a1
same,SPNS2 expression in mouse liver,SPNS2 mRNA,did not induce a change in SPNS2 expression; also recorded: not mouse liver
